Test results: ChEMBL document CHEMBL6074635, “Replacement of the essential nitro group by electrophilic warheads towards nitro-free antimycobacterial benzothiazinones” (Eur J Med Chem, 2024)
Converted amounts (≈) assume the structure as drawn.

Experiments:
[1] = test system: Mycobacterium tuberculosis; experiment: Antimycobacterial activity against Mycobacterium tuberculosis Erdman ATCC 35801 assessed as inhibition of bacterial growth incubated for 7 days by resazurin dye based two-fold dilution assay; assay type: functional; conditions: Erdman ATCC 35801, 168 h, time 7 day
[2] = Stability of compound in PBS at pH 7.4 assessed as half-life in presence of GSH incubated for 90 mins by UPLC-HRMS analysis; assay type: physicochemical; conditions: PBS with GSH
[3] = Drug metabolism in BALB/cAnNCrl mouse assessed as HMC metabolite formation at 250 mg/kg,po measured after 24 hrs by UHPLC-HRMS analysis; assay type: ADME, organism-based; conditions: in vivo
[4] = test system: Mycolicibacterium smegmatis; experiment: Antimycobacterial activity against Mycobacterium smegmatis JMRC:STH:00056 assessed as inhibition of bacterial growth incubated for 42 hrs by broth microdilution method; assay type: functional
Mycolicibacterium vaccae = experiment: Antimycobacterial activity against Mycobacterium vaccae JMRC:STI:10670 assessed as inhibition of bacterial growth incubated for 42 hrs by broth microdilution method; assay type: functional
[5] = Cytotoxicity against human HeLa cells incubated for 72 hrs by cell-titer blue reagent assay; assay type: toxicity, cell-based
[6] = test system: Mycobacterium tuberculosis; experiment: Antimycobacterial activity against Mycobacterium tuberculosis H37Rv assessed as inhibition of bacterial growth incubated for 7 days by resazurin dye based two-fold dilution assay; assay type: functional; conditions: 168 h, time 7 day
[7] = target: T1, Decaprenylphosphoryl-beta-D-ribose oxidase (Mycobacterium tuberculosis (strain ATCC 25618 / H37Rv), UniProt P9WJF1); experiment: Reversible inhibition of recombinant Mycobacterium tuberculosis DprE1 extracted from Escherichia coli BL21(DE3) using FPR/GGPR as substrate incubated for 60 mins by resazurin dye based fluorescence plate reader analysis
T1 sequence (P9WJF1 whole entry): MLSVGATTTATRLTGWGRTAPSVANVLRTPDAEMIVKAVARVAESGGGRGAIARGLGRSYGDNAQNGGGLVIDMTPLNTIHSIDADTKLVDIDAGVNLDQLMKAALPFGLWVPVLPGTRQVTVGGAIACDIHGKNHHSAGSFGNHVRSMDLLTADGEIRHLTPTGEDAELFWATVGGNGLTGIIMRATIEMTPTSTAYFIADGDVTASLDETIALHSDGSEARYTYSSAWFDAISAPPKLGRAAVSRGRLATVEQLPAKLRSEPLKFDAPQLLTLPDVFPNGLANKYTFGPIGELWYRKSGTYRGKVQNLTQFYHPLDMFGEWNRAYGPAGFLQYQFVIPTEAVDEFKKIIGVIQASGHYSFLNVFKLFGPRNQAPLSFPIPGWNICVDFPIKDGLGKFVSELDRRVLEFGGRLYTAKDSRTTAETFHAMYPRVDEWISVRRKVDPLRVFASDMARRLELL

[8] = Stability of compound in PBS at pH 7.4 in presence of GSH incubated for 90 mins by UPLC-HRMS analysis; assay type: physicochemical; conditions: buffer, pH 7.4, 1.5 h
[9] = target: T1, Decaprenylphosphoryl-beta-D-ribose oxidase; experiment: Covalent inhibition of recombinant Mycobacterium tuberculosis DprE1 extracted from Escherichia coli BL21(DE3) assessed as inhibition constant using FPR/GGPR as substrate incubated for 60 mins by resazurin dye based fluorescence plate reader analysis
[10] = target: T1, Decaprenylphosphoryl-beta-D-ribose oxidase; experiment: Covalent inhibition of recombinant Mycobacterium tuberculosis DprE1 extracted from Escherichia coli BL21(DE3) using FPR/GGPR as substrate incubated for 60 mins by resazurin dye based fluorescence plate reader analysis
[11] = Stability of compound in PBS at pH 7.4 assessed as compound remaining in presence of GSH incubated for 90 mins by UPLC-HRMS analysis; assay type: physicochemical; conditions: PBS with GSH, read-out: Stability

| SMILES | MIC [1] | half-life [2] | Drug metabolism [3] | MIC [4] | MIC (Mycolicibacterium vaccae) | CC50 at 72 h [5] | MIC [6] | IC50 [7] | Stability [8] | Ki [9] | IC50 [10] | remaining at 1.5 h [11] |
| --- | --- | --- | --- | --- | --- | --- | --- | --- | --- | --- | --- | --- |
| C#CP(=O)(Nc1cc(C(F)(F)F)cc2c(=O)nc(N3CCC4(CC3)OC[C@H](C)O4)sc12)OCC (stereo partly specified) | 10.3 µM (≈ 5.33 µg/mL) | 10.5 min | metabolite_notdetected | 96.6 µM (≈ 50 µg/mL) | 12 µM (≈ 6.21 µg/mL) | 10.8 µM | 10.3 µM (≈ 5.33 µg/mL) |  |  |  |  |  |
| C=C=CC(=O)Nc1cc(C(F)(F)F)cc2c(=O)nc(N3CCC4(CC3)OC[C@H](C)O4)sc12 |  |  |  | 107 µM (≈ 50 µg/mL) | 107 µM (≈ 50 µg/mL) |  |  |  |  |  |  |  |
| C=CS(=O)(=O)Nc1cc(C(F)(F)F)cc2c(=O)nc(N3CCC4(CC3)OC[C@H](C)O4)sc12 | 44.9 µM (≈ 22.1 µg/mL) |  |  | 25.4 µM (≈ 12.5 µg/mL) | 1.6 µM (≈ 0.786 µg/mL) |  | 45.2 µM (≈ 22.2 µg/mL) | 2.62 µM |  |  |  |  |
| COC(=O)C(=O)Nc1cc(C(F)(F)F)cc2c(=O)nc(N3CCC4(CC3)OC[C@H](C)O4)sc12 |  |  | metabolite_notdetected | 103 µM (≈ 50 µg/mL) | 51.3 µM (≈ 25 µg/mL) | > 50 µM |  |  | Unstable |  |  |  |
| CCOC(=O)C(=O)Nc1cc(C(F)(F)F)cc2c(=O)nc(N3CCC4(CC3)OC[C@H](C)O4)sc12 |  |  | metabolite_notdetected | 99.7 µM (≈ 50 µg/mL) | 49.8 µM (≈ 25 µg/mL) | > 50 µM |  |  | Unstable |  |  |  |
| C=CC(=O)Nc1cc(C(F)(F)F)cc2c(=O)nc(N3CCC4(CC3)OC[C@H](C)O4)sc12 | 3.6 µM (≈ 1.64 µg/mL) |  |  | 110 µM (≈ 50 µg/mL) |  |  | 3.9 µM (≈ 1.78 µg/mL) |  |  | 38.8 µM | 6.83 µM |  |
| C=C(F)C(=O)Nc1cc(C(F)(F)F)cc2c(=O)nc(N3CCC4(CC3)OC[C@H](C)O4)sc12 | 15.5 µM (≈ 7.34 µg/mL) |  |  | 106 µM (≈ 50 µg/mL) | 13.2 µM (≈ 6.25 µg/mL) |  | 13 µM (≈ 6.15 µg/mL) | 1.13 µM |  |  |  |  |
| C[C@H]1COC2(CCN(c3nc(=O)c4cc(C(F)(F)F)cc(NC(=O)C(C)(C)Br)c4s3)CC2)O1 |  |  | metabolite_notdetected | 90.8 µM (≈ 50 µg/mL) | 45.4 µM (≈ 25 µg/mL) | > 50 µM |  |  |  | 715 µM | 81.4 µM | 100% |
| C[C@H]1COC2(CCN(c3nc(=O)c4cc(C(F)(F)F)cc(N5CCC5=O)c4s3)CC2)O1 |  |  |  | 110 µM (≈ 50 µg/mL) | 54.9 µM (≈ 25 µg/mL) | > 50 µM |  |  |  |  |  | 100% |
| C=C(C)C(=O)Nc1cc(C(F)(F)F)cc2c(=O)nc(N3CCC4(CC3)OC[C@H](C)O4)sc12 |  |  |  | 106 µM (≈ 50 µg/mL) | 26.6 µM (≈ 12.5 µg/mL) |  |  |  |  | 214 µM | 33.9 µM |  |
| CC(Cl)C(=O)Nc1cc(C(F)(F)F)cc2c(=O)nc(N3CCC4(CC3)OC[C@H](C)O4)sc12 (stereo partly specified) |  |  | metabolite_notdetected | 102 µM (≈ 50 µg/mL) | 102 µM (≈ 50 µg/mL) | > 50 µM |  |  |  |  |  | 100% |
| C=CP(=O)(Nc1cc(C(F)(F)F)cc2c(=O)nc(N3CCC4(CC3)OC[C@H](C)O4)sc12)OCC (stereo partly specified) | 5 µM (≈ 2.6 µg/mL) |  | metabolite_notdetected | 24.1 µM (≈ 12.5 µg/mL) | 6 µM (≈ 3.12 µg/mL) | > 50 µM | 4.5 µM (≈ 2.34 µg/mL) | 19.5 µM |  |  |  | 100% |
| C[C@H]1COC2(CCN(c3nc(=O)c4cc(C(F)(F)F)cc([N+](=O)[O-])c4s3)CC2)O1 [BTZ-043] | 0.002 µM (≈ 0.000863 µg/mL) |  |  | 0.058 µM (≈ 0.025 µg/mL) | 0.004 µM (≈ 0.00173 µg/mL) |  | 0.002 µM (≈ 0.000863 µg/mL) |  |  |  |  |  |
